Experimental data published in patent US20130072563A1, “PERACID AND 2-HYDROXY ORGANIC ACID COMPOSITIONS AND METHODS FOR SANITATION AND DISEASE PREVENTION” (Fresh Express Incorporated, priority 2009, published 2013).

Key:
[1] = tested on: E. coli K12; experiment: Attached cells challenge test, Romaine; assay type: cell-based
[2] = cited from earlier work
[3] = tested on: indigenous microorganisms (Aerobic Plate Counts); experiment: Reduction of indigenous microorganisms on Romaine, commercial scale test; assay type: cell-based; details: 73-84 ppm peroxyacetic acid, no lactic acid
Experimental: (§1) These experiments evaluated the consumption or depletion of peroxyacetic acid when used to wash produce.
(§2) Treatments: chlorinated water, peroxyacetic acid wash water, and FE sanitizer wash water
(§3) Temperature: 38 to 40° F.
(§4) Produce: 1.5″×2″ diced Romaine lettuce
A. Determination of the amount of Romaine Lettuce that could deplete 600 gallons of peroxyacetic acid wash water. • 1. Perform full sanitization on the Pilot Line System. • 2. Fill the 2nd flume tank, 2″ reservoir, and 2″ filtering tank with tap water. • 3. Recycle the water through the system until the water in the system is being cooled down to 40° F. • 4. Calibrate the Prominent System and use the Prominent System to monitor the concentration of PAA in the wash water. • 5. Add the PAA to the 2nd filtering tank until the target processing limit is reached. • 6. Dice the Romaine Lettuce via the translicer. • 7. Collect the 2″33 2″ diced Romaine in totes. • 8. Record the weight of each tote prior to transferring it to the 2nd flume. • 9. Collect three untreated bags of Romaine Lettuce from each bin (1 top, 1 middle, and 1 bottom). • 10. Collect three treated bags of Romaine Lettuce at the end of F2 (1 beginning, 1 middle, and 1 end of the bin). • 11. Place white totes at the bottom of the locations with water spill. Return the spilt water back into the flume tank as needed. • 12. […]

[4] = Depletion of sanitizer wash water by diced Romaine Lettuce, commercial scale test; assay type: physicochemical; details: 38 to 40 F.
Experimental: as §1, §2, §3, §4
A. Determination of the amount of Romaine Lettuce that could deplete 600 gallons of peroxyacetic acid wash water. • 1. Perform full sanitization on the Pilot Line System. • 2. Fill the 2nd flume tank, 2″ reservoir, and 2″ filtering tank with tap water. • 3. Recycle the water through the system until the water in the system is being cooled down to 40° F. • 4. Calibrate the Prominent System and use the Prominent System to monitor the concentration of PAA in the wash water. • 5. Add the PAA to the 2nd filtering tank until the target processing limit is reached. • 6. Dice the Romaine Lettuce via the translicer. • 7. Collect the 2″33 2″ diced Romaine in totes. • 8. Record the weight of each tote prior to transferring it to the 2nd flume. • 9. Collect three untreated bags of Romaine Lettuce from each bin (1 top, 1 middle, and 1 bottom). • 10. Collect three treated bags of Romaine Lettuce at the end of F2 (1 beginning, 1 middle, and 1 end of the bin). • 11. Place white totes at the bottom of the locations with water spill. Return the spilt water back into the flume tank as needed. • 12. Place white totes at the bottom outlets of the centrifuge to collect liquid that would be spin off from the leaves. Return the collected water back into the flume tank as needed. • 13. Repeat Steps ‘e’ to ‘k’ for the rest of the bins till the FE concentrations fall below the lowest processing limits. • 14. Enumerate the microbial population (APC and Yeast and mold) on the collected samples.
B. Determination of the Amount of Romaine Lettuce that Could Deplete 600 gallons of FE Wash Water • 1. Perform full sanitization on the Pilot Line System. • 2. Fill the flume tank, 2″ flume tank, 1st reservoir, 2nd reservoir, 1st filtering tank, and 2nd filtering tank with tap water. • 3. Recycle the water through the system until the water in the system is being cooled down to 40° F. • 4. Switch on the by-passes for the 1st and 2″ flume tank systems so that water would not be going through the filtering systems but only recycling from the flume tank to its associate reservoir continuously. • 5. Add the chemical ingredients to both tank until the target processing limit is reached. • 6. Verify the concentration of FE by the probe of the Prominent Monitoring System at the 1st flume tank (F1), 1^St Reservoir (R1), 2nd Flume tank (F2), and the 2nd Reservoir (R2). • 7. Collect water samples from F1 and F2. • 8. Assemble the Romaine Lettuce Bins next to the dumpster. • 9. Transfer whole Romaine Lettuce leaves from the bin to the conveyor. • 10. Ensure that the lid above the F1 is closed. Turn the “ON/OFF” switch of the translicer to “ON”. • 11. Turn the conveyor for transferring leaves into the translicer to “ON”. • 12. Ensure that the chopped Romaine are delivered evenly into the flume tank without aggregation and clumping. • 13. Collect three untreated bags of Romaine Lettuce from each bin (1 top, 1 middle, and 1 bottom). • 14. Collect three treated bags of Romaine Lettuce at the end of F2 (1 beginning, 1 middle, and 1 end of the bin). • 15. Verify the pH, temperature, and the concentration of FE at the 1st flume tank (F1), 1st Reservoir (R1), 2nd Flume tank (F2), and the 2nd Reservoir (R2) before and after processing a bin. • 16. Place white totes at the bottom of the locations with water spill. Return the spilt water back into the flume tank as needed. • 17. Place white totes at the bottom outlets of the centrifuge to collect liquid that would be spin off from the leaves. Return the collected water back into the flume tank as needed. • 18. Repeat Steps ‘e’ to ‘o’ for the rest of the bins till the FE concentrations fall below the lowest processing limits. • 19. […]

[5] = tested on: Lactobacillus plantarum 14917; experiment: Suspended Cells Challenge Test at 20 s residence time with no surfactant; assay type: cell-based; details: Lactic Acid 0 ppm
Experimental: The experimental treatment groups were tap water, chlorinated water, a FE sanitizer wash water (FE, FE sanitizer, a solution of peroxyacetic acid and lactic acid, as further specified in a given experiment).
The experimental protocol was as follows: • 1. Transfer 1.00 mL of a ˜10^8cfu/g Lactobacillus plantarum (ATCC 14917) stock culture into a test tube containing 9.00 mL of treatment test solution • 2. Vortex the mixture for 15 s • 3. Stop the reaction by transferring 1 mL of the treated samples to 9 mL of Butterfield Phosphate Buffer • 4. Enumerate viable residual cells through serial dilutions and spread plating with 1-mL transfers • 5. […] Repeat Steps 1 to 5 two more times • 7. Repeat Steps 1 to 6 with flume water • 8. Repeat Steps 1 to 6 with chlorinated water • 9. Repeat Steps 1 to 8 with various levels of FE • 10. Repeat Steps 1 to 8 with various levels of lactic acid • 11. Repeat Steps 1 to 8 with various levels of peroxyacetic acid • 12. Repeat Steps 1 to 11 with Listeria innocua (ATCC33090)
Estimation of Log Reductions • 1. Log […] is a measure of the percent of microorganisms that are inactivated during the disinfection process and is defined as Log Inactivation=Log10 (No/NT) where No is the initial influent concentration of viable microorganisms; NT is the concentration of surviving microorganisms. As M cfu/g=microbial population of stock culture; W cfu/g=microbial population in solution of “Water Treatment” and X cfu/g=microbial population in solution of “X Treatment,” the Log reduction caused by “Treatment X”=Log (w/x)

[6] = 40° C.; cited from earlier work
[7] = tested on: E. coli K12; experiment: Attached cells challenge test, Spinach; assay type: cell-based; details: LA 0.0%
[8] = 600 gallons, Diced Romaine Lettuce
[9] = Cumulative Wt. of Diced Romaine added 0.0 lb, 600 gallons
[10] = Cumulative Wt. of Diced Romaine added 55.2 lb, 600 gallons
[11] = Cumulative Wt. of Diced Romaine added 114.9 lb, 600 gallons
[12] = Cumulative Wt. of Diced Romaine added 157.2 lb, 600 gallons
[13] = Cumulative Wt. of Diced Romaine added 207.7 lb, 600 gallons
[14] = Cumulative Wt. of Diced Romaine added 272.9 lb, 600 gallons
[15] = Cumulative Wt. of Diced Romaine added 325.8 lb, 600 gallons
[16] = Cumulative Wt. of Diced Romaine added 371.3 lb, 600 gallons
[17] = Cumulative Wt. of Diced Romaine added 424.7 lb, 600 gallons
[18] = Cumulative Wt. of Diced Romaine added 502.6 lb, 600 gallons
[19] = Cumulative Wt. of Diced Romaine added 565.0 lb, 600 gallons
[20] = Cumulative Wt. of Diced Romaine added 629.0 lb, 600 gallons
[21] = Cumulative Wt. of Diced Romaine added 697.1 lb, 600 gallons
[22] = Cumulative Wt. of Diced Romaine added 762.7 lb, 600 gallons
[23] = Cumulative Wt. of Diced Romaine added 826.6 lb, 600 gallons
[24] = Cumulative Wt. of Diced Romaine added 896.2 lb, 600 gallons
[25] = Cumulative Wt. of Diced Romaine added 949.9 lb, 600 gallons

In the case of `CC(O)C(=O)O` (stereo not shown) [Lactic acid, lactic acid], the “Log reduction, attached cells” value ([1]; PAA 0 ppm, LA 1.2%) is reported as 1.28.
For `OCl` [Sodium hypochlorite (Chlorine bleach), Sodium hypochlorite], the “Oxidation Capacity” value [2] is given as 1.36 eV.
For `CC(=O)OO` [Peroxyacetic acid, peroxyacetic acid], the “Oxidation Capacity” value [2] is given as 1.81 eV, the “Aerobic Plate Counts after wash” value [3] is given as 2.7 Log cfu/g and the “Log Reduction of indigenous microorganisms” value [3] is given as 0.7 log10. The “Pounds of Romaine treated” value ([4]; 600 gallons of sanitizer) was 949.90 lb, the “Depletion of PA” value ([4]; 600 gallons) was 0.000013 lb of PA per lb of Romaine and the “Amount of PA (PAA) consumed” value [4, 8] was 11.7 ppm. The “Pounds of PA (PAA) consumed” value [4, 8] was 0.01208 lb, the “PA (ppm) in wash water” value [4, 9] was 84.8 ppm and the “Peroxide (ppm) in wash water” value [4, 9] was 7.5 ppm. The “PA (ppm) in wash water” value [4, 10] was 83.3 ppm, the “Peroxide (ppm) in wash water” value [4, 10] was 7.4 ppm and the “PA (ppm) in wash water” value [4, 11] was 82.7 ppm. For the same compound, the “Peroxide (ppm) in wash water” value [4, 11] was 7.4 ppm, the “PA (ppm) in wash water” value [4, 12] was 82.4 ppm and the “Peroxide (ppm) in wash water” value [4, 12] was 7.4 ppm. For the same compound, the “PA (ppm) in wash water” value [4, 13] was 82.0 ppm, the “Peroxide (ppm) in wash water” value [4, 13] was 7.4 ppm and the “PA (ppm) in wash water” value [4, 14] was 81.4 ppm. The “Peroxide (ppm) in wash water” value [4, 14] was 7.3 ppm, the “PA (ppm) in wash water” value [4, 15] was 81.0 ppm and the “Peroxide (ppm) in wash water” value [4, 15] was 7.3 ppm. For the same compound, the “PA (ppm) in wash water” value [4, 16] was 80.5 ppm, the “Peroxide (ppm) in wash water” value [4, 16] was 7.1 ppm and the “PA (ppm) in wash water” value [4, 17] was 79.6 ppm. The “Peroxide (ppm) in wash water” value [4, 17] was 6.9 ppm, the “PA (ppm) in wash water” value [4, 18] was 78.7 ppm and the “Peroxide (ppm) in wash water” value [4, 18] was 6.9 ppm. For the same compound, the “PA (ppm) in wash water” value [4, 19] was 78.4 ppm, the “Peroxide (ppm) in wash water” value [4, 19] was 6.9 ppm and the “PA (ppm) in wash water” value [4, 20] was 77.7 ppm. For the same compound, the “Peroxide (ppm) in wash water” value [4, 20] was 6.4 ppm, the “PA (ppm) in wash water” value [4, 21] was 76.1 ppm and the “Peroxide (ppm) in wash water” value [4, 21] was 6.4 ppm. The “PA (ppm) in wash water” value [4, 22] was 75.4 ppm, the “Peroxide (ppm) in wash water” value [4, 22] was 6.1 ppm and the “PA (ppm) in wash water” value [4, 23] was 74.7 ppm. For the same compound, the “Peroxide (ppm) in wash water” value [4, 23] was 6.0 ppm, the “PA (ppm) in wash water” value [4, 24] was 73.7 ppm and the “Peroxide (ppm) in wash water” value [4, 24] was 6.0 ppm. For the same compound, the “PA (ppm) in wash water” value [4, 25] was 73.1 ppm, the “Peroxide (ppm) in wash water” value [4, 25] was 6.0 ppm and the “Log reduction, attached cells” value ([1]; PAA 80 ppm, LA 0.0%) was 1.18. For the same compound, the “log reduction of suspended cells” value ([5]; Peroxyacetic acid 70 ppm) was 4.52 log10, the “log reduction of suspended cells” value ([5]; Peroxyacetic acid 75 ppm) was 5.59 log10 and the “log reduction of suspended cells” value ([5]; Peroxyacetic acid 80 ppm) was 5.59 log10. The “apparent equilibrium constant Kap” value [6] was “about 2.21”, the “Log reduction, attached cells” value ([7]; PAA 70 ppm) was 1.33 and the “Log reduction, attached cells” value ([7]; PAA 80 ppm) was 2.46.
In the case of `[O][Cl+][O-]` [Chlorine Dioxide], the “Oxidation Capacity” value [2] is given as 1.57 eV.
In the case of `O=[O+][O-]` [Ozone], the “Oxidation Capacity” value [2] is listed as 2.07 eV.
